Test results: ChEMBL document CHEMBL1268996, “Apoptotic action of ursolic acid isolated from Corni fructus in RC-58T/h/SA#4 primary human prostate cancer cells” (2010)
The source made the active and inactive calls. The calls are words filed in the database; no cut-off is given here.

Assays:
Homo sapiens [1] = organism: Homo sapiens; experiment: Induction of apoptosis in human RC-58T/h/SA#4 cells assessed as nuclear fragmentation at 30 to 40 uM after 24 hrs by Hoechst 33258 staining; type: functional, cell-based
Homo sapiens [2] = organism: Homo sapiens; experiment: Antiproliferative activity against human RC-58T/h/SA#4 cells at >= 30 uM SRB assay; type: functional, cell-based; conditions: TDE = time-dependent effect
[3] = Induction of apoptosis in human RC-58T/h/SA#4 cells assessed as increase in sub-G1 DNA content at 30 ug/ml after 24 hrs by flow cytometry; type: functional
Homo sapiens [4] = organism: Homo sapiens; experiment: Induction of apoptosis in human RC-58T/h/SA#4 cells assessed as caspase 8-mediated Bid protein cleavage at 30 to 40 uM by Western blot analysis; type: functional, cell-based
Homo sapiens [5] = organism: Homo sapiens; experiment: Induction of apoptosis in human RC-58T/h/SA#4 cells assessed as increase in sub-G1 DNA content after 24 hrs by flow cytometry; type: functional, cell-based
Homo sapiens [6] = organism: Homo sapiens; experiment: Induction of apoptosis in human RC-58T/h/SA#4 cells assessed as PARP cleavage by Western blot analysis in presence of 10 uM Z-VAD-fmk caspase inhibitor; type: functional, cell-based
Homo sapiens [7] = organism: Homo sapiens; experiment: Induction of apoptosis in human RC-58T/h/SA#4 cells assessed as chromatin condensation at 30 to 40 uM after 24 hrs by Hoechst 33258 staining; type: functional, cell-based
Homo sapiens [8] = organism: Homo sapiens; experiment: Antiproliferative activity against human RC-58T/h/SA#4 cells after 24 to 72 hrs SRB assay; type: functional, cell-based
[9] = Induction of apoptosis in human RC-58T/h/SA#4 cells assessed as caspase 3 activation at 40 uM by fluorometric protease assay relative to control; type: functional
[10] = Induction of apoptosis in human RC-58T/h/SA#4 cells assessed as caspase 9 activation at 40 uM by fluorometric protease assay relative to control; type: functional
Homo sapiens [11] = organism: Homo sapiens; experiment: Induction of apoptosis in human RC-58T/h/SA#4 cells assessed as AIF translocation into nucleus at 30 to 40 uM by Western blot analysis; type: functional, cell-based
[12] = Induction of apoptosis in human RC-58T/h/SA#4 cells assessed as increase in sub-G1 DNA content at 40 ug/ml after 24 hrs by flow cytometry; type: functional
Homo sapiens [13] = organism: Homo sapiens; experiment: Induction of apoptosis in human RC-58T/h/SA#4 cells assessed as PARP cleavage by Western blot analysis; type: functional, cell-based
Homo sapiens [14] = organism: Homo sapiens; experiment: Induction of apoptosis in human RC-58T/h/SA#4 cells assessed as increase in pro-apoptotic protein Bax at 30 to 40 uM by Western blot analysis; type: functional, cell-based
Homo sapiens [15] = organism: Homo sapiens; experiment: Induction of apoptosis in human RC-58T/h/SA#4 cells assessed as decrease in anti-apoptotic protein Bcl-2 at 30 to 40 uM by Western blot analysis; type: functional, cell-based
[16] = Induction of apoptosis in human RC-58T/h/SA#4 cells assessed as increase in sub-G1 DNA content at 10 ug/ml after 24 hrs by flow cytometry; type: functional
Homo sapiens [17] = organism: Homo sapiens; experiment: Induction of apoptosis in human RC-58T/h/SA#4 cells assessed as DNA fragmentation ladder at 30 to 40 uM after 24 hrs by agarose gel electrophoresis; type: functional, cell-based
[18] = Induction of apoptosis in human RC-58T/h/SA#4 cells assessed as caspase 8 activation at 40 uM by fluorometric protease assay relative to control; type: functional
[19] = Induction of apoptosis in human RC-58T/h/SA#4 cells assessed as increase in sub-G1 DNA content at 20 ug/ml after 24 hrs by flow cytometry; type: functional
Homo sapiens [20] = organism: Homo sapiens; experiment: Antiproliferative activity against human RC-58T/h/SA#4 cells assessed as decrease in viable cells by trypan blue assay; type: functional, cell-based

C[C@H]1[C@H](C)CC[C@]2(C(=O)O)CC[C@]3(C)C(=CC[C@@H]4[C@@]5(C)CC[C@H](O)C(C)(C)[C@@H]5CC[C@]43C)[C@H]12 [URSOLIC ACID]
Activity (Homo sapiens [1]): Active | Activity (Homo sapiens [2]): tde | Activity [3]: 48.1% | Activity (Homo sapiens [4]): Active | Activity (Homo sapiens [5]): Dose-dependent effect | Activity (Homo sapiens [6]): inactive | Activity (Homo sapiens [7]): Active | Activity (Homo sapiens [8]): Dose-dependent effect | fold change (FC) [9]: 1.8 | fold change (FC) [10]: 1.1 | Activity (Homo sapiens [11]): Active | Activity [12]: 58.6% | Activity (Homo sapiens [13]): Active | Activity (Homo sapiens [14]): Active | Activity (Homo sapiens [15]): Active | Activity [16]: 5.41% | Activity (Homo sapiens [17]): Active | fold change (FC) [18]: 1.8 | Activity [19]: 20.83% | Activity (Homo sapiens [20]): Dose-dependent effect
